Several values for one entry are separate records, joined by “and”; a condition that tells them apart may be missing. Equal values may be shown once.

The target in data set [1] is T1, mouse GIP receptor (Mus musculus, UniProt Q0P543).
T1 sequence (Q0P543 19-460): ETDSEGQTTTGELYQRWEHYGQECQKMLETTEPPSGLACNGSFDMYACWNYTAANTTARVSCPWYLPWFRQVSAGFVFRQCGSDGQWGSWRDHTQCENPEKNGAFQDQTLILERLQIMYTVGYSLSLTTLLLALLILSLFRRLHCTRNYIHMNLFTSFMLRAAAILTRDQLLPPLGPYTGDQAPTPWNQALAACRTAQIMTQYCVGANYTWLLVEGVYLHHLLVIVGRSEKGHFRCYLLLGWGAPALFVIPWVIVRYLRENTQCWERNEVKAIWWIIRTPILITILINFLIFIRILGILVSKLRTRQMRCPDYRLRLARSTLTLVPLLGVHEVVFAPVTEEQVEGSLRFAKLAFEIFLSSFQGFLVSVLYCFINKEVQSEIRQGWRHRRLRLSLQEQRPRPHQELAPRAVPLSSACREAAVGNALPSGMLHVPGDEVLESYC
The data set is described as follows: Gs recruitment (ligand-induced BRET), mouse GIPR. As to conditions: HEK-293T, read-out: Gs recruitment Emax. Details: expressed in transfected cells. It is filed as cell-based. The procedure:
(§1) BRET measurements were taken every 1 min using a PHERAstar FS multi-mode microplate reader. Baseline measurements were taken after an initial 5 min incubation with coelenterazine-h or NanoGlo-containing HBSS, after which cells were treated with either a vehicle (PBS) or the respective ligands. Ligand-specific ratiometric BRET signals were normalized to the vehicle, producing the ‘ligand-induced BRET ratio’[46], followed by additional normalization to well-specific baseline readings. Ligand-induced measurements on the temporal scale are represented as the subsequent measurement after time point zero. Positive or negative incremental area under the curves (+iAUC, –iAUC) were calculated where noted. Concentration–response curves were generated by three-parameter logistic fitting in Prism 9.0.
(In BRET a luciferase serves as donor, and the signal depends on an acceptor being close.)

The target of data set [2] is T1, mouse GIP receptor. The data set is described as follows: [35S]GTPγS binding, mouse GIPR. The data set is classed as biochemical. Also noted: expressed in transfected cells; host or cells: low-receptor-density clonal cell lines. The procedure: (§2) Methods for these assays have been previously described. In brief, for GTPγs binding, the potency of ligands to stimulate receptor-dependent elevation of the GTPγS-bound Gαs subunit was determined using membrane preparations from low-receptor-density receptor clonal cell lines. Reactions were incubated for 30 min at room temperature in white, clear-bottom microtiter plates, and per cent of the maximal response was calculated using control wells as a reference. Relative EC50 values were derived by nonlinear regression analysis using the per cent response versus the concentration of ligand and fitted to a four-parameter logistic equation using GraphPad Prism 7 software. For cAMP assays, kinetic cAMP assays were performed in low-density receptor cell clones transfected with the Glosensor 22 F vector (Promega). Cells were equilibrated for 5–20 min and then 20 μl of 10× ligand was added and a luminescence time course was collected.
On the technique in general: GTPγS resists hydrolysis and so accumulates on activated G proteins.

Data set [3] has as its target T1, mouse GIP receptor. In words: cAMP generation (Glosensor), mouse GIPR. The data set is classed as cell-based. Also noted: expressed in transfected cells; host or cells: low-receptor-density clonal cell lines. The note with it: mouse GIPR, low-density receptor clones, Glosensor; mean (s.e.m., n); read-out: cAMP Emax. As to the method:
as §2, with “collected. Ligand (10×) was titrated by manual serial dilution in DMSO followed by step-down into assay buffer.” for “collected.”

Data set [4] has as its target mouse GLP-1 receptor (mouse) (UniProt O35659). The data set is described as follows: other; competition with radioligand, header printed as [125I]GIP(1-42)OH.
The test system of another data set is human islets. The data set is described as follows: Human islets, glucagon secretion with tirzepatide at 2.7 or 10 mM glucose ± alanine (Fig. 3d). The data set is classed as cell-based. As to the method:
Human islets were obtained from both the Alberta Diabetes Institute and the Integrated Islet Distribution Program. All islets were obtained from consenting donors. Details for the general perifusion protocol have been previously described[21] and are similar to the mouse perifusion protocol. […] Each set of human islets consisted of n = 3 for each condition. These were averaged to generate a single data point (Fig. 2c). Insulin values were measured with a Lumit insulin immunoassay (Promega) using an EnVision plate reader (PerkinElmer). For the glucagon secretion experiments (Fig. 3), the average glucagon values were calculated during control (minutes 35–45) and stimulated (minutes 55–65) conditions. All peptides were used at 30 nM concentrations based on previous work[16]. Amino acids were used at concentrations of 3 mM based on previous work[11]. Glucagon was measured with a Lumit Glucagon Immunoassay Kit (cat. no. CS3037A02; Promega) using an EnVision plate reader (PerkinElmer). Somatostatin was measured with an ELISA assay (cat. no. FEK-060-14; Phoenix Pharmaceuticals). All data are expressed as the measured concentration relative to both flow rate and islet number (insulin, ng ml^–1 × (1/200 µl ml^–1) × (1/75 islets); glucagon, pM × (1/200 µl ml^–1) × (1/75 islets); somatostatin, pg ml^–1 × (1/200 µl ml^–1) × (1/75 islets))[49]. […]

The target in data set [5] is T2, Mouse GLP-1R (Mus musculus, UniProt O35659).
T2 construct: expressed in transfected cells; host or cells: HEK293T, transient (Lipofectamine 2000)
T2 sequence (O35659 22-463): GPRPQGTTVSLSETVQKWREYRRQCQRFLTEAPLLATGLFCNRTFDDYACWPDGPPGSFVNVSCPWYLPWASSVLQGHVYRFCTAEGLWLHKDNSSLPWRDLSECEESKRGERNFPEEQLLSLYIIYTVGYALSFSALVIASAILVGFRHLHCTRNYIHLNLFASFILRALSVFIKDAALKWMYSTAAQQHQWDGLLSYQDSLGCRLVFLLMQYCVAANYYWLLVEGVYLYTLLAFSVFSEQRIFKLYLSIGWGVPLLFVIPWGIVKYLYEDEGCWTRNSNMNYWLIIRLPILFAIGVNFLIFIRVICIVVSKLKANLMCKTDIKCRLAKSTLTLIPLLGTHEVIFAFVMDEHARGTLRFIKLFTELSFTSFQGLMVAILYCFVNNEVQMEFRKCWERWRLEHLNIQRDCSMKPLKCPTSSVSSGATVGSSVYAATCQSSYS
The data set is described as follows: Gs recruitment (ligand-induced BRET), mouse GLP-1R. As to conditions: mean (SEM, n). The data set is classed as cell-based. The procedure:
as §1

Data set [6] deals with T2, Mouse GLP-1R. In words: cAMP generation (Glosensor), mouse GLP-1R. The data set is classed as cell-based. The procedure: as §2, with “collected. Ligand (10×) was titrated by manual serial dilution in DMSO followed by step-down into assay buffer.” for “collected.”
The conditions of data set [7]: in vivo; cited from earlier work. From the text: Tirzepatide is an agonist for both incretin receptors, engineered from the human GIP (hGIP) peptide sequence. It has an average half-life of approximately 5 days, enabling once-weekly dosing.

With `CC[C@H](C)[C@H](NC(=O)[C@H](CO)NC(=O)[C@H](Cc1ccc(O)cc1)NC(=O)[C@H](CC(=O)O)NC(=O)[C@H](CO)NC(=O)[C@@H](NC(=O)[C@H](Cc1ccccc1)NC(=O)[C@@H](NC(=O)CNC(=O)[C@H](CCC(=O)O)NC(=O)[C@H](C)NC(=O)[C@@H](N)Cc1ccc(O)cc1)[C@@H](C)O)[C@@H](C)CC)C(=O)N[C@@H](C)C(=O)N[C@@H](CCSC)C(=O)N[C@@H](CC(=O)O)C(=O)N[C@@H](CCCCN)C(=O)N[C@H](C(=O)N[C@@H](CCCNC(=N)N)C(=O)N[C@@H](CCC(N)=O)C(=O)N[C@@H](CCC(N)=O)C(=O)N[C@@H](CC(=O)O)C(=O)N[C@@H](Cc1ccccc1)C(=O)N[C@H](C(=O)N[C@@H](CC(N)=O)C(=O)N[C@@H](Cc1c[nH]c2ccccc12)C(=O)N[C@@H](CC(C)C)C(=O)N[C@@H](CC(C)C)C(=O)N[C@@H](C)C(=O)N[C@@H](CCC(N)=O)C(=O)N[C@@H](CCCNC(=N)N)C(=O)NCC(=O)N[C@@H](CCCCN)C(=O)N[C@@H](CCCCN)C(=O)N[C@@H](CO)C(=O)N[C@@H](CC(=O)O)C(=O)N[C@@H](Cc1c[nH]c2ccccc12)C(=O)N[C@@H](CCCCN)C(=O)N[C@@H](Cc1c[nH]cn1)C(=O)N[C@@H](CC(N)=O)C(=O)N[C@H](C(=O)N[C@H](C(=O)N[C@@H](CCC(N)=O)C(N)=O)[C@@H](C)O)[C@@H](C)CC)C(C)C)[C@@H](C)CC` [mGIP], the Emax on mouse GIP receptor [1] was determined as 100%; on mouse GIP receptor [2] (mGIPR GTPgS, run of 2019-06-25) it was 98.5%; on mouse GIP receptor [2] (mGIPR GTPgS, run of 2022-05-11), 98.7%; at mouse GIP receptor [2] (mGIPR GTPgS, run of 2022-05-12), 98%; at mouse GIP receptor [2] (mGIPR GTPgS, run of 2022-06-16), 101%; on mouse GIP receptor [2] (mGIPR GTPgS, run of 2022-06-21), 102%. Also, the Emax was 98.9% at mouse GIP receptor [2] (read-out: [35S]GTPγS binding Emax, mouse GIPR, membranes, 30 min room temperature, mean (s.e.m., n)) and 103% on mouse GIP receptor [3].

TZP: the Ki in data set [4] came to 0.387 nM.

As for `C[C@H](N)C(=O)O` [Alanine], the “iAUC values (glucagon secretion)” value in the data set on human islets is 42.82 and 37.07 and 49.41 and 40.38 and 34.9 and 39.11.

For `CC[C@H](C)[C@H](NC(=O)[C@H](CC(C)C)NC(=O)[C@H](Cc1c[nH]c2ccccc12)NC(=O)[C@H](CCC(N)=O)NC(=O)[C@@H](NC(=O)[C@H](Cc1ccccc1)NC(=O)[C@H](C)NC(=O)[C@H](CCCCNC(=O)COCCOCCNC(=O)COCCOCCNC(=O)CC[C@H](NC(=O)CCCCCCCCCCCCCCCCCCC(=O)O)C(=O)O)NC(=O)[C@H](CCC(N)=O)NC(=O)[C@H](C)NC(=O)[C@@H](NC(=O)[C@H](CCCCN)NC(=O)[C@H](CC(=O)O)NC(=O)[C@H](CC(C)C)NC(=O)C(C)(C)NC(=O)[C@@H](NC(=O)[C@H](CO)NC(=O)[C@H](Cc1ccc(O)cc1)NC(=O)[C@H](CC(=O)O)NC(=O)[C@H](CO)NC(=O)[C@@H](NC(=O)[C@H](Cc1ccccc1)NC(=O)[C@@H](NC(=O)CNC(=O)[C@H](CCC(=O)O)NC(=O)C(C)(C)NC(=O)[C@@H](N)Cc1ccc(O)cc1)[C@@H](C)O)[C@@H](C)O)[C@@H](C)CC)[C@@H](C)CC)C(C)C)C(=O)N[C@@H](C)C(=O)NCC(=O)NCC(=O)N1CCC[C@H]1C(=O)N[C@@H](CO)C(=O)N[C@@H](CO)C(=O)NCC(=O)N[C@@H](C)C(=O)N1CCC[C@H]1C(=O)N1CCC[C@H]1C(=O)N1CCC[C@H]1C(=O)N[C@@H](CO)C(N)=O` [TZP, tirzepatide], the Emax was 35.6% at Mouse GLP-1R [5]; 95% at Mouse GLP-1R [6] (HEK293, mouse GLP-1R HEK-293 cells, n = 6, read-out: Emax, mean of column (T-test Emax, cAMP)); 95% on Mouse GLP-1R [6] (HEK293, read-out: Arthmetic Mean Emax); 84% on Mouse GLP-1R [6] (Mouse GLP-1R, mean (n), read-out: cAMP EMAX); 72.6% at mouse GIP receptor [1] (mouse GIPR, HEK293T BRET, mean (s.e.m., n)); 103% on mouse GIP receptor [3]. Moreover, the Half-life entry in data set [7] is on record as “approximately 5 days”.

The Emax is the size of the effect at its maximum, as opposed to the concentration needed. In general, Ki refers to the equilibrium dissociation constant of an inhibitor or competing ligand from its target.

These data come from publication PMC10290954 (Nature Metabolism, 2023).
